Results reported in ChEMBL document CHEMBL5608174, “Synthesis and biological evaluation of 4-phenyl-5-quinolinyl substituted isoxazole analogues as potent cytotoxic and tubulin polymerization inhibitors against ESCC” (Eur J Med Chem, 2024).
pIC50: −log10 of the molar value. Calls of active or inactive are those of the source. No cut-off for these calls is given here.

How the values were obtained:
[1] = system: KYSE-70 cell line; experiment: Induction of apoptosis in human KYSE-70 cells assessed as late apoptotic cells at 20 nmol/L incubated for 48 hrs by Annexin V-FITC/PI staining based flow cytometry analysis (reference value: 3.01%); format: functional
[2] = system: KYSE-270; experiment: Antiproliferative activity against human KYSE-270 cells assessed as inhibition of cell growth incubated for 48 hrs by MTT assay; format: functional, cell-based; conditions: KYSE-270, 48 h
[3] = system: KYSE-450; experiment: Antiproliferative activity against human KYSE-450 cells assessed as inhibition of cell growth incubated for 48 hrs by MTT assay; format: functional, cell-based; conditions: KYSE-450, 48 h
[4] = species: Sus scrofa; experiment: Inhibition of porcine brain tubulin polymerization measured every 30 secs for 120 times in the presence of GTP by fluorescence based assay; conditions: time 60.0 min
[5] = target: T1, Tubulin beta (Homo sapiens) (UniProt P68371+Q9H4B7+Q13509+P04350+Q3ZCM7+P07437+Q13885+Q9BVA1+Q9BUF5+A6NNZ2); experiment: Binding affinity to beta-tubulin colchicine binding site in human KYSE-30 cells assessed as inhibition of EBI-beta-tubulin adduct band formation at 0 to 10 micromol/L preincubated for 2 hrs followed by EBI addition measured after 2 hrs by EBI competition based Western blotting analysis; format: cell-based; conditions: dose 0-10 µmol/L, time 4.0 hrs
[6] = target: T1, Tubulin beta (Homo sapiens); experiment: Binding affinity to beta-tubulin colchicine binding site in human KYSE-70 cells assessed as inhibition of EBI-beta-tubulin adduct band formation at 0 to 10 micromol/L preincubated for 2 hrs followed by EBI addition measured after 2 hrs by EBI competition based Western blotting analysis; format: cell-based; conditions: dose 0-10 µmol/L, time 4.0 hrs
[7] = target: T2, Tubulin (Homo sapiens) (UniProt P68371+Q9H4B7+P0DPH7+P68366+Q13509+Q71U36+P04350+Q3ZCM7+P07437+P68363+Q9BQE3+Q6PEY2+Q13885+Q9BVA1+Q9BUF5); experiment: Inhibition of tubulin polymerization in human KYSE-30 cells assessed as reduction in filamentous microtubule structure formation at 5 to 20 nmol/L incubated for 24 hrs by DAPI staining based fluorescence microscopic analysis; format: cell-based; conditions: dose 5-20 nmol/L
[8] = system: KYSE-30; experiment: Inhibition of human KYSE-30 cells proliferation at 5 to 20 nmol/L incubated for 48 hrs by real time cellular analysis; format: functional, cell-based; conditions: dose 5-20 nmol/L
[9] = system: KYSE-70 cell line; experiment: Inhibition of human KYSE-70 cells proliferation at 5 to 20 nmol/L incubated for 48 hrs by real time cellular analysis; format: functional, cell-based; conditions: dose 5-20 nmol/L
[10] = system: KYSE-30; experiment: Upregulation of p-Histone H3 level in human KYSE-30 cells at 5 to 20 nmol/L by Western blot analysis; format: functional, cell-based; conditions: dose 5-20 nmol/L
[11] = system: KYSE-30; experiment: Induction of morphological changes in human KYSE-30 cells assessed as deformation at 5 to 20 nmol/L incubated for 48 hrs by Bright field microscopic analysis; format: functional, cell-based; conditions: dose 5-20 nmol/L
[12] = system: KYSE-30; experiment: Induction of morphological changes in human KYSE-30 cells assessed as fragmentation at 5 to 20 nmol/L incubated for 48 hrs by Bright field microscopic analysis; format: functional, cell-based; conditions: dose 5-20 nmol/L
[13] = system: KYSE-30; experiment: Induction of morphological changes in human KYSE-30 cells assessed as decrease in cell density at 5 to 20 nmol/L incubated for 48 hrs by Calcein AM/PI staining based inverted fluorescence microscopic analysis; format: functional; conditions: dose 5-20 nmol/L
[14] = system: KYSE-30; experiment: Induction of morphological changes in human KYSE-30 cells assessed as induction of fragmentation in nuclei at 5 to 20 nmol/L incubated for 48 hrs by DAPI staining based fluorescence microscopic analysis; format: functional, cell-based; conditions: dose 5-20 nmol/L
[15] = system: KYSE-30; experiment: Induction of apoptosis in human KYSE-30 cells assessed as viable cells at 10 nmol/L incubated for 48 hrs by Annexin V-FITC/PI staining based flow cytometry analysis (reference value: 88.76 %); format: functional; conditions: read-out: Activity
[16] = system: KYSE-30; experiment: Induction of apoptosis in human KYSE-30 cells assessed as early apoptotic cells at 10 nmol/L incubated for 48 hrs by Annexin V-FITC/PI staining based flow cytometry analysis (reference value: 4.38 %); format: functional
[17] = system: KYSE-30; experiment: Induction of apoptosis in human KYSE-30 cells assessed as viable cells at 20 nmol/L incubated for 48 hrs by Annexin V-FITC/PI staining based flow cytometry analysis (reference value: 88.76 %); format: functional; conditions: read-out: Activity
[18] = system: KYSE-30; experiment: Induction of apoptosis in human KYSE-30 cells assessed as necrotic cells at 20 nmol/L incubated for 48 hrs by Annexin V-FITC/PI staining based flow cytometry analysis (reference value: 1.59 %); format: functional
[19] = system: KYSE-70 cell line; experiment: Induction of apoptosis in human KYSE-70 cells assessed as late apoptotic cells at 5 nmol/L incubated for 48 hrs by Annexin V-FITC/PI staining based flow cytometry analysis (reference value: 3.01%); format: functional
[20] = system: KYSE-70 cell line; experiment: Induction of apoptosis in human KYSE-70 cells assessed as early apoptotic cells at 10 nmol/L incubated for 48 hrs by Annexin V-FITC/PI staining based flow cytometry analysis (reference value: 1.78%); format: functional
[21] = system: Esophageal squamous cell carcinoma cell; experiment: Induction of apoptosis in human Esophageal squamous cell carcinoma cell assessed as increase in caspase-9 activation at 5 to 20 nmol/L incubated for 48 hrs by Western blot analysis; format: functional, cell-based; conditions: dose 5-20 nmol/L
[22] = system: KYSE-30; experiment: Antitumor activity against human KYSE-30 cells xenografted in female BALB/c-nu nude mouse assessed as reduction in tumor weight at 6 to 12 mg/kg, ip administered daily for 15 days; format: functional, organism-based; conditions: dose 6-12 mg/kg, time 15.0 day
[23] = Toxicity in female BALB/c-nu nude mouse xenografted with human KYSE-30 cells assessed as effect on serum blood urea nitrogen level at 6 to 12 mg/kg, ip administered for 15 days by biochemical analysis; format: organism-based; conditions: in vivo, 360 h, dose 6-12 mg/kg, time 15 day
[24] = Toxicity in female BALB/c-nu nude mouse xenografted with human KYSE-30 cells assessed as change in heart pathology at 6 to 12 mg/kg, ip administered for 15 days by H and E staining based analysis; format: organism-based; conditions: in vivo, 360 h, dose 6-12 mg/kg, time 15 day
[25] = Toxicity in female BALB/c-nu nude mouse xenografted with human KYSE-30 cells assessed as change in liver pathology at 6 to 12 mg/kg, ip administered for 15 days by H and E staining based analysis; format: organism-based; conditions: in vivo, 360 h, dose 6-12 mg/kg, time 15 day
[26] = Toxicity in female BALB/c-nu nude mouse xenografted with human KYSE-30 cells assessed as change in spleen pathology at 6 to 12 mg/kg, ip administered for 15 days by H and E staining based analysis; format: organism-based; conditions: in vivo, 360 h, dose 6-12 mg/kg, time 15 day
[27] = Toxicity in female BALB/c-nu nude mouse xenografted with human KYSE-30 cells assessed as change in lung pathology at 6 to 12 mg/kg, ip administered for 15 days by H and E staining based analysis; format: organism-based; conditions: in vivo, 360 h, dose 6-12 mg/kg, time 15 day
[28] = Toxicity in female BALB/c-nu nude mouse xenografted with human KYSE-30 cells assessed as change in kidney pathology at 6 to 12 mg/kg, ip administered for 15 days by H and E staining based analysis; format: organism-based; conditions: in vivo, 360 h, dose 6-12 mg/kg, time 15 day
[29] = target: T2, Tubulin (Homo sapiens); experiment: Inhibition of tubulin polymerization in human KYSE-70 cells assessed as effect on mitotic phase at 5 to 20 nmol/L incubated for 24 hrs by DAPI staining based fluorescence microscopic analysis; format: cell-based; conditions: dose 5-20 nmol/L
[30] = system: KYSE-70 cell line; experiment: Effect on nuclear replication in human KYSE-70 cells at 5 to 20 nmol/L incubated for 24 hrs by DAPI staining based fluorescence microscopic analysis; format: functional, cell-based; conditions: dose 5-20 nmol/L
[31] = system: KYSE-30
Description: Antiproliferative activity against human KYSE-30 cells assessed as inhibition of cell proliferation incubated for 48 hrs by MTT assay

## COc1ccc(-c2cnoc2-c2cc(C)nc3ccccc23)cc1
[1]
  Activity: 17.48%
[2]
  pIC50: 7.38
[3]
  pIC50: 7.72
[4]
  inhibition: Active
[5]
  Activity: Active
[6]
  Activity: Active
[7]
  inhibition: Active
[8]
  inhibition: Active
[9]
  inhibition: Active
[10]
  Activity: Active
[11]
  Activity: Active
[12]
  Activity: Active
[13]
  Activity: Active
[14]
  Activity: Active
[15]
  viability at 0.01 µM: 37.5%
[16]
  Activity: 47.75%
[17]
  viability at 0.02 µM: 38.9%
[18]
  Activity: 3.2%
[19]
  Activity: 6.21%
[20]
  Activity: 28.93%
[21]
  Activity: Active
[22]
  Activity: Active
[23]
  Activity: Non-Toxic
[24]
  Activity: Non-Toxic
[25]
  Activity: Non-Toxic
[26]
  Activity: Non-Toxic
[27]
  Activity: Non-Toxic
[28]
  Activity: Non-Toxic
[29]
  inhibition: Active
[30]
  Activity: inactive
[31]
  pIC50: 7.88
